Experimental data: ChEMBL document CHEMBL3627710, “Mitochondrial targeted β-lapachone induces mitochondrial dysfunction and catastrophic vacuolization in cancer cells” (Bioorg Med Chem Lett, 2015)
Calls of active or inactive are those of the source. No cut-off for these calls is given here.

What was measured:
[1] = system: A549; test: Cytotoxicity against human A549 cells assessed as decrease in cell viability after 24 hrs by Celltiter-Blue assay; format: functional, cell-based
[2] = system: A549; test: Cytotoxicity against human A549 cells assessed as vacuoles formation at 6 uM after 20 hrs by phase contrast microscopy; format: functional, cell-based
[3] = system: A549; test: Induction of apoptosis in human A549 cells assessed as viable cells by annexin-V/PI staining analysis (reference value: 97.6%); format: functional
[4] = system: A549; test: Induction of apoptosis in human A549 cells assessed as early apoptotic cells by annexin-V/PI staining analysis (reference value: 1.1%); format: functional
[5] = system: A549; test: Induction of apoptosis in human A549 cells assessed as late apoptotic cells by annexin-V/PI staining analysis (reference value: 1.0%); format: functional
[6] = system: A549; test: Induction of apoptosis in human A549 cells assessed as necrotic cells by annexin-V/PI staining analysis (reference value: 0.3%); format: functional
[7] = system: A549; test: Effect on oligomycin-induced inhibition of mitochondrial respiration in human A549 cells assessed as oxygen consumption rate by extracellular flux analyzer; format: functional, cell-based
[8] = system: A549; test: Induction of autophagy in human A549 cells assessed as increase in LC3-2 expression by western blot analysis; format: functional, cell-based
[9] = system: WM983B; test: Cytotoxicity against human WM983B cells assessed as decrease in cell viability at 2 to 10 uM after 24 hrs by Celltiter-Blue assay; format: functional, cell-based
[10] = system: PEO1; test: Cytotoxicity against human PEO1 cells assessed as decrease in cell viability at 2 to 10 uM after 24 hrs by Celltiter-Blue assay; format: functional, cell-based
[11] = system: MDA-MB-231; test: Cytotoxicity against human MDA-MB-231 cells assessed as decrease in cell viability at 2 to 10 uM after 24 hrs by Celltiter-Blue assay; format: functional, cell-based
[12] = system: A549; test: Cytotoxicity against human A549 cells assessed as decrease in cell viability at 10 uM for 4 hrs measured after 3 days by Celltiter-Blue assay; format: functional, cell-based
[13] = Cytotoxicity against human IMR90 cells assessed as slight decrease in cell viability at 10 uM for 4 hrs measured after 3 days by Celltiter-Blue assay; format: cell-based; details: imr-90, 10 µM
[14] = system: A549; test: Induction of ROS generation in human A549 cells at 6 uM for 16 hrs by DCF dye based flow cytometry; format: functional, cell-based
[15] = system: A549; test: Induction of ROS generation in human A549 cells at 6 uM for 16 hrs by MitoSox dye based flow cytometry; format: functional, cell-based
[16] = system: A549; test: Effect on mitochondrial morphology in human A549 cells assessed as onion skin-like structures of mitochondria by electron microscopy; format: functional, cell-based
[17] = system: A549; test: Effect on mitochondrial morphology in human A549 cells assessed as vacuoles formation by electron microscopy; format: functional, cell-based

CC1(C)OC2=C(CC1O)C(=O)C(=O)c1ccccc12 (stereo not given)
inhibition [1]: Dose-dependent effect | Activity [2]: inactive | Activity [3]: 89.2% | Activity [4]: 4% | Activity [5]: 5.7% | Activity [6]: 1.1% | Activity [7]: Active | Activity [8]: inactive

CC(C)C[C@@H](/C=C/[C@H](Cc1ccccc1)C(=O)N1CCC[C@H]1C(=O)N[C@H](C(=O)N[C@@H](CCCNC(=O)OCc1ccccc1)C(=O)NCCC(=O)OC1CC2=C(OC1(C)C)c1ccccc1C(=O)C2=O)C(C)C)NC(=O)OC(C)(C)C (stereo not given in full)
inhibition [1]: Dose-dependent effect | inhibition [9]: Active | inhibition [10]: Active | inhibition [11]: Active | inhibition [12]: Active | Activity [13]: Toxic | Activity [2]: Active | Activity [3]: 60.9% | Activity [4]: 3.9% | Activity [5]: 31.5% | Activity [6]: 3.7% | Activity [14]: Active | Activity [15]: Active | Activity [7]: inactive | Activity [16]: Active | Activity [17]: Active | Activity [8]: Active
